Reference: ChEMBL document CHEMBL1138613, “1,5-Benzodiazepine inhibitors of HCV NS5B polymerase” (Bioorg Med Chem Lett, 2009)

Assays:
[1] = Inhibition of HCV NS5B polymerase; parameters: species or system Hepacivirus hominis
Hepatitis C virus [2] = assay: Inhibition of HCV 1b J4 recombinant NS5B Cdelta 21 polymerase overexpressed in Escherichia coli BL21 (DE3) assessed as [alpha33P]UTP incorporation by scintillation proximity analysis; parameters: species or system Hepatitis C virus subtype 1b
[3] = Cytotoxicity against human HuH7 cells after 5 days by ATPlite luminescence assay; format: cell-based, Huh-7
Hepatitis C virus [4] = assay: Antiviral activity against HCV 1b in human HuH7cells by luciferase reporter replicon assay; format: functional, organism-based, Hepacivirus hominis; conditions: genotype 1b, Huh-7
[5] = Apparent permeability from apical to basolateral side of human Caco-2 cells; format: ADME, cell-based
[6] = Selectivity index, ratio of CC50 for human HuH7 cells to EC50 for HCV 1b in human HuH7cells; format: functional, Huh-7

Compound | IC50 [1] [nM] | IC50 (Hepatitis C virus [2]) [nM] | CC50 at 120 h [3] [nM] | EC50 (Hepatitis C virus [4]) [nM] | Papp A→B [5] [×10⁻⁶ cm/s] | Selectivity Index [6]
O=C(O)/C(=C/c1ccc(Oc2ccccc2Br)cc1)NC(=O)c1ccccc1 | 100 |  |  |  |  | 
O=C(O)/C(=C/c1ccc(Oc2ccccc2)cc1)NC(=O)c1ccccc1 | 17000 |  |  |  |  | 
O=C(O)/C(=C/c1ccc(Oc2c(F)cccc2Br)cc1)NC(=O)c1ccccc1 | 30 |  |  |  |  | 
CC1(C)CC(=O)C2=C(C1)Nc1c(O)cccc1N(C(=O)c1ccncn1)C2c1ccc(OCc2ccccc2)cc1F (stereo unspecified) |  | 60 | > 32000 | 730 |  | 
CC1(C)CC(=O)C2=C(C1)Nc1c(O)cccc1N(C(=O)c1nccs1)C2c1ccc(OCc2ccccc2)cc1F (stereo unspecified) |  | 111 | 19000 | 1700 |  | 
CC1(C)CC(=O)C2=C(C1)Nc1c(O)cccc1N(C(=O)c1ccccn1)C2c1ccc(OCc2ccccc2)cc1F (stereo unspecified) |  | 51 | 15000 | 360 |  | 
CC(=O)N1c2cccc(O)c2NC2=C(C(=O)CC(C)(C)C2)C1c1ccc(Oc2ccccc2)cc1Cl (stereo unspecified) |  | 160 |  | 9900 |  | 
CC(=O)N1c2cccc(O)c2NC2=C(C(=O)CC(C)(C)C2)C1c1ccc(Cl)cc1Cl (stereo unspecified) |  | 100 |  | 3000 |  | 
CC(=O)N1c2cccc(O)c2NC2=C(C(=O)CC(C)(C)C2)[C@@H]1c1ccc(Cl)cc1Cl |  |  |  | 2420 |  | 
CC(=O)N1c2ccncc2NC2=C(C(=O)CC(C)(C)C2)C1c1ccc(Cl)cc1Cl (stereo unspecified) |  | 510 |  | > 32000 |  | 
CC(=O)N1c2ncnc(O)c2NC2=C(C(=O)CC(C)(C)C2)C1c1ccc(Cl)cc1Cl (stereo unspecified) |  | > 32000 |  | > 32000 |  | 
CC(=O)N1c2cccc(O)c2NC2=C(C(=O)CC(C)(C)C2)C1C1CCCCC1 (stereo unspecified) |  | 22000 |  | 740 |  | 
CC(=O)N1CC2=C(CC(C)(C)CC2=O)Nc2c(O)cccc21 |  | > 32000 |  | > 32000 |  | 
Cc1nc(C(=O)N2c3cccc(O)c3NC3=C(C(=O)CC(C)(C)C3)C2c2ccc(OCc3ccccc3)cc2F)cs1 (stereo unspecified) |  | 143 | > 32000 | 970 |  | 
CC(=O)N1c2ncccc2NC2=C(C(=O)CC(C)(C)C2)C1c1ccc(Cl)cc1Cl (stereo unspecified) |  | 8040 |  | > 32000 |  | 
CC(C)C(=O)N1c2cccc(O)c2NC2=C(C(=O)CC(C)(C)C2)C1c1ccc(OCc2ccccc2)cc1F (stereo unspecified) |  | 123 | 14000 | 1300 |  | 
CC(=O)N1c2cccc(O)c2NC2=C(C(=O)CC(C)(C)C2)C1c1ccco1 (stereo unspecified) |  | 21000 |  | 43000 |  | 
CC(=O)N1c2cccc(O)c2NC2=C(C(=O)CC(C)(C)C2)C1c1nccn1C (stereo unspecified) |  | > 32000 |  | > 32000 |  | 
Cc1cc(OCc2ccccc2)ccc1C1C2=C(CC(C)(C)CC2=O)Nc2c(O)cccc2N1C(=O)C(C)C (stereo unspecified) |  | 124 | 15000 | 1600 |  | 
CC(=O)N1c2ccccc2NC2=C(C(=O)CC(C)(C)C2)C1c1ccc(Cl)cc1Cl (stereo unspecified) |  | 3100 |  | > 32000 |  | 
CC(=O)N1c2cccc(Br)c2NC2=C(C(=O)CC(C)(C)C2)C1c1ccc(Cl)cc1Cl (stereo unspecified) |  | 6120 |  | 7800 |  | 
CC(=O)N1c2cccc(C#N)c2NC2=C(C(=O)CC(C)(C)C2)C1c1ccc(Cl)cc1Cl (stereo unspecified) |  | 6970 |  | 15400 |  | 
Cc1cccc(C(=O)N2c3cccc(O)c3NC3=C(C(=O)CC(C)(C)C3)C2c2ccc(OCc3ccccc3)cc2F)n1 (stereo unspecified) |  | 70 | 18000 | 500 |  | 
CC1(C)CC(=O)C2=C(C1)Nc1c(O)cccc1N(C(=O)c1cccc(F)n1)C2c1ccc(OCc2ccccc2)cc1F (stereo unspecified) |  | 77 | > 32000 | 860 |  | 
CC1(C)CC(=O)C2=C(C1)Nc1c(O)cccc1N(C(=O)c1cscn1)C2c1ccc(OCc2ccccc2)cc1F (stereo unspecified) |  | 39 | 29000 | 760 |  | 
Cc1nc(C(=O)N2c3cccc(O)c3NC3=C(C(=O)CC(C)(C)C3)[C@@H]2c2ccc(OCc3ccccc3)cc2F)c(C)o1 |  | 29 | 28000 | 270 | 10.9 | 100

Compound | IC50 [1] [nM] | IC50 (Hepatitis C virus [2]) [nM] | CC50 at 120 h [3] [nM] | EC50 (Hepatitis C virus [4]) [nM] | Papp A→B [5] [×10⁻⁶ cm/s] | Selectivity Index [6]
Cc1cc(C(=O)N2c3cccc(O)c3NC3=C(C(=O)CC(C)(C)C3)C2c2ccc(OCc3ccccc3)cc2F)no1 (stereo unspecified) |  | 120 | 45000 | 1800 |  | 
CC1(C)CC(=O)C2=C(C1)Nc1c(O)cccc1N(C(=O)c1ncn[nH]1)C2c1ccc(OCc2ccccc2)cc1F (stereo unspecified) |  | 21 | > 32000 | 2400 |  | 
CC1(C)CC(=O)C2=C(C1)Nc1c(O)cccc1N(C(=O)c1cccc(Cl)n1)C2c1ccc(OCc2ccccc2)cc1F (stereo unspecified) |  | 108 | 13000 | 690 |  | 
CC1(C)CC(=O)C2=C(C1)Nc1c(O)cccc1N(C(=O)c1ccco1)C2c1ccc(OCc2ccccc2)cc1F (stereo unspecified) |  | 75 | 16000 | 2200 |  | 
Cc1nc(C(=O)N2c3cccc(O)c3NC3=C(C(=O)CC(C)(C)C3)C2c2ccc(OCc3ccccc3)cc2F)co1 (stereo unspecified) |  | 63 | 29000 | 1600 |  | 
Cc1cccc(C(=O)N2c3cccc(O)c3NC3=C(C(=O)CC(C)(C)C3)[C@@H]2c2ccc(OCc3ccccc3)cc2F)n1 |  | 89 | 21000 | 400 | 11.6 | 50
Cc1cccc(C(=O)N2c3cccc(O)c3NC3=C(C(=O)CC(C)(C)C3)[C@H]2c2ccc(OCc3ccccc3)cc2F)n1 |  | > 11000 | 18000 | 5700 |  | 
Cc1cc(C(=O)N2c3cccc(O)c3NC3=C(C(=O)CC(C)(C)C3)C2c2ccc(OCc3ccccc3)cc2F)nn1C (stereo unspecified) |  | 50 | 25000 | 1000 |  | 
Cc1nc(C(=O)N2c3cccc(O)c3NC3=C(C(=O)CC(C)(C)C3)C2c2ccc(OCc3ccccc3)cc2F)c(C)o1 (stereo unspecified) |  | 79 | 28000 | 570 |  | 
Cc1nc(C(=O)N2c3cccc(O)c3NC3=C(C(=O)CC(C)(C)C3)[C@H]2c2ccc(OCc3ccccc3)cc2F)c(C)o1 |  | 27000 | 13000 | 3600 |  | 
CC1(C)CC(=O)C2=C(C1)Nc1c(O)cccc1N(C(=O)c1cccnc1)C2c1ccc(OCc2ccccc2)cc1F (stereo unspecified) |  | 109 | 20000 | 2300 |  | 
CC1(C)CC(=O)C2=C(C1)Nc1c(O)cccc1N(C(=O)c1ccncc1)C2c1ccc(OCc2ccccc2)cc1F (stereo unspecified) |  | 86 | 76000 | 3300 |  | 
CC(=O)N1c2cccc(O)c2NC2=C(C(=O)CC(C)(C)C2)[C@H]1c1ccc(Cl)cc1Cl |  | 14400 |  | 14500 |  | 
CC(=O)N1c2ncncc2NC2=C(C(=O)CC(C)(C)C2)C1c1ccc(Cl)cc1Cl (stereo unspecified) |  | 510 |  | > 32000 |  | 
CC(=O)N1c2cccc(O)c2NC2=C(C(=O)CC(C)(C)C2)C1c1ccc(Oc2c(F)cccc2Br)cc1Cl (stereo unspecified) |  | 120 |  | 6300 |  | 
CC(C)C(=O)N1c2cccc(O)c2NC2=C(C(=O)CC(C)(C)C2)C1c1ccc(OCc2ccccc2)cc1Cl (stereo unspecified) |  | 154 | 17000 | 1500 |  | 
CC(=O)N1c2cccc(O)c2NC2=C(C(=O)CC(C)(C)C2)C1c1sccc1OCc1ccccc1 (stereo unspecified) |  | 180 |  | 11000 |  | 
CC(=O)N1c2cccc(O)c2NC2=C(C(=O)CC(C)(C)C2)C1c1ccc(OCc2ccccc2)cc1Cl (stereo unspecified) |  | 40 | 15000 | 1500 |  | 
CC(=O)N1c2ccccc2NC2=C(C(=O)CC(C)(C)C2)[C@@H]1c1ccc(OCc2ccccc2)c(Cl)c1 |  | 1000 |  |  |  | 
CC(=O)N1c2cccc(C)c2NC2=C(C(=O)CC(C)(C)C2)C1c1ccc(Cl)cc1Cl (stereo unspecified) |  | 4780 |  | 14600 |  | 
CC(=O)N1c2cccc(O)c2NC2=C(C(=O)CC(C)(C)C2)C1c1ccc(Oc2ccccc2Br)cc1Cl (stereo unspecified) |  | 100 |  | 7100 |  | 
CC(=O)N1c2ccccc2NC2=C(C(=O)CC(C)(C)C2)C1c1ccc(OCc2ccccc2)cc1Cl (stereo unspecified) |  | 900 |  | 2300 |  | 
CC(=O)N1c2cccc(O)c2NC2=C(C(=O)CC(C)(C)C2)C1c1ccccn1 (stereo unspecified) |  | > 32000 |  | > 32000 |  | 
CC(=O)N1c2cccc(O)c2NC2=C(C(=O)CC(C)(C)C2)C1c1cn(C)c2ccccc12 (stereo unspecified) |  | 13000 |  | > 32000 |  | 
CC(C)C(=O)N1c2cccc(O)c2NC2=C(C(=O)CC(C)(C)C2)C1c1ccc(OCc2ccccc2)cc1Br (stereo unspecified) |  | 87 | 12000 | 2400 |  | 
